According to ChEMBL document CHEMBL1201862, “PubChem BioAssay data set” (2004):
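Five compound concentrations were applied to cells in 96-well plates for 48 hours; endpoints were derived by simple linear interpolation of the resulting dose-response curve. At the GI50, growth is halved.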 Activity calls are given as the source filed them. No stated cut-off is given here; in the data, active = GI50 up to about 1.1 µM and inactive = higher.

What was measured:
Test in all cases: growth of human tumour cells (NCI), 48 h
IGROV-1 = tested on: IGROV-1
UACC-257 = tested on: UACC-257
LOX IMVI = tested on: LOX IMVI
CAKI-1 = tested on: CAKI-1
OVCAR-5 = tested on: OVCAR-5
A498 = tested on: A498
MDA-MB-231 = tested on: MDA-MB-231
M14 = tested on: M14
PC-3 = tested on: PC-3
RXF 393 = tested on: RXF 393
OVCAR-4 = tested on: OVCAR-4
NCI-H522 = tested on: NCI-H522
MCF7 = tested on: MCF7
Hs-578T = tested on: Hs-578T
NCI/ADR-RES = tested on: NCI/ADR-RES
COLO 205 = tested on: COLO 205
HL-60 = tested on: HL-60
SW-620 = tested on: SW-620
HCC 2998 = tested on: HCC 2998

SMILES	GI50 (IGROV-1)	GI50 (UACC-257)	GI50 (LOX IMVI)	GI50 (CAKI-1)	GI50 (OVCAR-5)	GI50 (A498)	GI50 (MDA-MB-231)	GI50 (M14)	GI50 (PC-3)	GI50 (RXF 393)	GI50 (OVCAR-4)	GI50 (NCI-H522)	GI50 (MCF7)	GI50 (Hs-578T)	GI50 (NCI/ADR-RES)	GI50 (COLO 205)	GI50 (HL-60)	GI50 (SW-620)	GI50 (HCC 2998)
O=C(O)/C=c1/c2ccccc2n2nc3ccccc3c12	31.4 µM (inactive)	20.9 µM (inactive)	21.9 µM (inactive)	37.3 µM (inactive)	57.9 µM (inactive)	22 µM (inactive)	39.1 µM (inactive)	31.2 µM (inactive)	> 100 µM (inactive)	49.1 µM (inactive)	22.8 µM (inactive)	20.7 µM (inactive)	35.2 µM (inactive)	23.6 µM (inactive)	29.5 µM (inactive)	17.2 µM (inactive)	34.1 µM (inactive)	35.6 µM (inactive)	24.1 µM (inactive)
C/C(=N\NC(=S)NC(C)C)c1nc2cccnc2[nH]1	19.8 µM (inactive)	34.6 µM (inactive)	30.2 µM (inactive)	18.2 µM (inactive)	28.8 µM (inactive)	> 47.6 µM (inactive)	> 26.7 µM (inactive)	57.9 µM (inactive)	27.9 µM (inactive)	33.8 µM (inactive)	6.15 µM (inactive)	13.8 µM (inactive)	21.9 µM (inactive)	23.9 µM (inactive)	40.5 µM (inactive)	11 µM (inactive)	8.93 µM (inactive)	12.1 µM (inactive)	19.4 µM (inactive)
Cn1c(CO)ccc1-c1ccc(-c2ccc[se]2)[se]1	0.0384 µM (active)	–	47.9 µM (inactive)	< 0.01 µM (active)	–	0.0349 µM (active)	23.6 µM (inactive)	42.9 µM (inactive)	> 90.4 µM (inactive)	3.07 µM (inactive)	0.043 µM (active)	61.9 µM (inactive)	0.119 µM (active)	55 µM (inactive)	32.7 µM (inactive)	3.46 µM (inactive)	21.8 µM (inactive)	0.0959 µM (active)	0.798 µM (active)
OC(CCN1CCN(CCOC(c2ccc(F)cc2)c2ccc(F)cc2)CC1)c1ccc(Br)cc1 (stereo unspecified)	4.57 µM (inactive)	1.96 µM (inactive)	2.04 µM (inactive)	2.02 µM (inactive)	15.5 µM (inactive)	2.12 µM (inactive)	5.74 µM (inactive)	1.96 µM (inactive)	4.83 µM (inactive)	3.94 µM (inactive)	4.01 µM (inactive)	5.74 µM (inactive)	3.37 µM (inactive)	4.89 µM (inactive)	2.21 µM (inactive)	1.85 µM (inactive)	2.77 µM (inactive)	4.67 µM (inactive)	1.97 µM (inactive)
CC1(C)C2C=C(CCN3CCOCC3)CC1C2 (stereo unspecified)	> 100 µM (inactive)	> 100 µM (inactive)	> 100 µM (inactive)	> 100 µM (inactive)	> 100 µM (inactive)	> 100 µM (inactive)	> 100 µM (inactive)	> 100 µM (inactive)	> 100 µM (inactive)	> 100 µM (inactive)	> 100 µM (inactive)	> 100 µM (inactive)	> 100 µM (inactive)	> 100 µM (inactive)	> 100 µM (inactive)	> 100 µM (inactive)	> 100 µM (inactive)	> 100 µM (inactive)	> 100 µM (inactive)
O=C1CC(c2ccco2)C2(C(=O)NC(=O)NC2=O)C(c2ccco2)C1 (stereo unspecified)	> 75 µM (inactive)	> 75 µM (inactive)	> 75 µM (inactive)	> 75 µM (inactive)	> 75 µM (inactive)	> 75 µM (inactive)	> 75 µM (inactive)	> 75 µM (inactive)	> 75 µM (inactive)	> 75 µM (inactive)	> 75 µM (inactive)	> 75 µM (inactive)	> 75 µM (inactive)	> 75 µM (inactive)	> 75 µM (inactive)	> 75 µM (inactive)	> 75 µM (inactive)	> 75 µM (inactive)	> 75 µM (inactive)
O=C(O)CSCC(=O)Nc1ccc2cccc3c2c1CC3	> 100 µM (inactive)	> 100 µM (inactive)	> 100 µM (inactive)	> 100 µM (inactive)	> 100 µM (inactive)	> 100 µM (inactive)	> 100 µM (inactive)	> 100 µM (inactive)	> 100 µM (inactive)	> 100 µM (inactive)	> 100 µM (inactive)	> 100 µM (inactive)	97.1 µM (inactive)	> 100 µM (inactive)	> 100 µM (inactive)	> 100 µM (inactive)	> 100 µM (inactive)	> 100 µM (inactive)	> 100 µM (inactive)
